Series [1] has as its system mouse breast tumor cells (4T1 cells). Description: Boyden chamber cell migration assay, 4T1. The note with it: 4T1 tumor cells, 6-8 hours; read-out: IC50 value, chamber cell migration assay. Format: cell-based.
The nature of series [2]: Mouse blood plasma stability. Particulars: test period one hour. The protocol:
The biological evaluation of the compounds (in terms of their ability to inhibit cell migration) was accomplished in a Boyden chamber cell migration assay. In this assay, mouse breast tumor cells (4T1 cells) or endothelial cells (HUVECs) are seeded on the upper chamber of a transwell insert. Growth factor-containing serum is added to the lower chamber.
In anticipation of subsequent in vivo evaluation of these compounds and others, preliminary metabolic stability studies were carried out. […] As a test of the ‘deactivation hypothesis’, the hydrolysis product of macrolactone 48 was prepared (Scheme 27) and tested for its activity against tumor cell migration.

Series [3] relates to human breast cancer cell line MDA MB435. Kind of series: Chamber cell migration assay, MDA MB435. Particulars: highly metastatic human breast cancer cell line. Format: cell-based. The protocol:
Cell migrations were assayed with 8 μm of microporous 6.5-mm transwell plates (Corning). 200 μl of 2×10^5 cells in serum-free RPMI1640 medium containing 0.5% BSA were added to the upper chamber and 600 μl of medium with 10% fetal bovine serum was added to the lower chamber. […] Cells migrated to the lower wells were collected and counted for liquid tumors, solid tumors were processed as previously described.^28 Data shown are representative of at least three experiments.

Series [4] concerns human colon cancer cell line HT 29. Kind of series: Wound healing (scratch) assay, HT 29. It counts as cell-based. Further details: key: successful (+); unsuccessful (−) inhibition of cell migration. The note with it: 10X IC50: 48 (240 nM), 55 (1000 nM), 60 (2550 nM); 24 and 48 h. The procedure: (§1) The human ovarian cancer cell lines Ovcar3 and IGROV were grown in M5 media. The colon cell lines HT 29 and HCT 116 were cultivated in DMEM containing 10% FCS in a humidified environment at 37° C. Myeloma cell lines CAG (obtained from The Myeloma Institute for Research and Therapy, University of Arkansas) and RPMI8226 as well as lymphoma cell line RL were maintained at RPMI1640 medium containing 10% FCS. All cell lines were acquired from the ATCC if not otherwise stated.
(§2) The tumor cells were seeded into 24-multiwell plates (Becton-Dickinson) and cultivated until the cells formed a confluent monolayer. Wounds were set by horizontally scratching the monolayer with a sterile pipette tip. The cells were thereafter washed twice with Phosphate Buffered Saline (PBS) to remove detached cells. Growth media was then added containing different concentrations of the chemical compound and incubated at 37° C. […] The cells were photographed at the beginning of the experiment and after 24 and 48 h to assess the progression of cell migration into the wound.

Another series relates to colon cell line HCT 116. Description: Wound healing (scratch) assay, HCT 116. It counts as cell-based, human. Further details: key: successful (+); unsuccessful (−) inhibition of cell migration. The note with it: 10X IC50: 48 (240 nM), 55 (1000 nM), 60 (2550 nM); 24 and 48 h. The protocol: as §1, §2
The subject of series [5] is human ovarian cancer cell line IGROV. Kind of series: Wound healing (scratch) assay, IGROV. Format: cell-based. More on the design: key: successful (+); unsuccessful (−) inhibition of cell migration. Particulars: 10X IC50: 48 (240 nM), 55 (1000 nM), 60 (2550 nM); 24 and 48 h. The procedure: as §1, §2
Series [6] concerns human ovarian cancer cell line Ovcar3. Kind of series: Wound healing (scratch) assay, Ovcar3. It counts as cell-based. Further details: key: successful (+); unsuccessful (−) inhibition of cell migration. Particulars: 10X IC50: 48 (240 nM), 55 (1000 nM), 60 (2550 nM); 24 and 48 h. The protocol:
as §1, §2

Series [7] deals with human breast cancer cell line MDA MB435. Description: Wound healing (scratch) assay, MDA MB435. It counts as cell-based. Further details: key: successful (+); unsuccessful (−) inhibition of cell migration. The note with it: 10X IC50: 48 (240 nM), 55 (1000 nM), 60 (2550 nM); 24 and 48 h. The procedure: as §2
The test system of a further series is CAG cells. Kind of series: CAG cell proliferation assay (XTT). Particulars: printed in the legend on CAG cell proliferation; read-out: IC50 (legend of FIG. 3). Format: cell-based, human. The protocol:
In the last 20 hours, sodium 3′-[1-(phenylamino-carbonyl)-3,4-tetrazolium]-bis(4-methoxy-6-nitro) benzene sulfonic acid hydrate (XTT) was added and optical absorbance at 490 nm were measured. As reference wavelength 650 nm was used. […] The result was expressed as percentage of the control.

For the next series, the system named is SKOV. Kind of series: Cell proliferation and viability assay (XTT), SKOV. It counts as cell-based, human. The note with it: 72 h in total, no morphological sign of apoptosis or cell death. The protocol: (§3) Cell proliferation and viability measurement were assessed by a colorimetric assay using sodium 39-(phenylaminocarbonyl)-3,4-tetrazolium-bis(4-methoxy-6-nitro) benzene sulfonic acid hydrate (XTT, Sigma, St. Louis, Mo.), and phenazine methosulphate (PMS, Sigma, St. Louis, Mo.). Cells from indicated lines were plated at 5˜10×10×10^3/well in 96 well plates in the presence of different concentration of compounds for 52 hrs. Then 50 μL of XTT/PMS mixture was added to each well and incubated for an additional 20 hrs at 37° C. Plate absorbance was measured directly at optical density of 490 nm (reference wavelength at 650 nm) in an ELISA reader (Thermo Max Microplate Reader, Molecular Devices, CA). The data was expressed as the mean of readings obtained in wells with treatment with subtraction of the reading with vehicle control. The total metabolic activity, which correspond to the number of living cells directly correlate to the amount of orange formazan formed in a cell. The result is expressed as percentage of the control.

Another series relates to HT29. Kind of series: Cell proliferation and viability assay (XTT), HT29. It counts as cell-based, human. Particulars: 72 h in total, no morphological sign of apoptosis or cell death. The procedure: as §3
The test system of another series is IGROV. Kind of series: Cell proliferation and viability assay (XTT), IGROV. It counts as cell-based, human. The note with it: 72 h in total, no morphological sign of apoptosis or cell death. The procedure:
as §3

A further series deals with HCT116. Description: Cell proliferation and viability assay (XTT), HCT116. Format: cell-based, human. Particulars: 72 h in total. The protocol: as §3
The test system of the next series is Ovcar3. Kind of series: Cell proliferation and viability assay (XTT), Ovcar3. It counts as cell-based, human. Particulars: 72 h in total. The protocol:
as §3

Another series relates to Ovcar4. Description: Cell proliferation and viability assay (XTT), Ovcar4. It counts as cell-based, human. The note with it: 72 h in total. The protocol: as §3
In series [8] the test system is human ovarian tumor cell line OVCAR3. Description: In vivo metastatic ovarian xenograph model (OVCAR3 HSV-TK/eGFP/FLuc). Further details: species or system mouse. From the text: The human ovarian tumor cell line OVCAR3 was transduced with a triple fusion gene HSV-TK/eGFP/FLuc, expressing thymidine kinase, enhanced green fluorescence protein and firefly luciferase. Whole animal imaging by luciferase bioluminescence (FIGS. 7A & B), allowed identification and quantification of disseminated tumor. We quantified the tumor burden in each organ, by sacrificing the mouse shortly after luciferin injecting and imaging of the dissected organs (lung, liver and spleen) (FIG. 8). In all instances tumor engraftment was initiated with 1-5×10^7 cells and the recipients received 3 Gy irradiation 10 days before tumor engraftment. These tumor cells generated bulky omental metastases with diffuse microscopic peritoneal carcinomatosis causing ascites (FIG. 9), significant pleural effusion with diffuse macroscopic peritoneal carcinomatosis and liver, lung and paraaortic metastases.
Treatment was initiated once primary tumor was well established. Animals were imaged at weekly intervals to monitor tumor growth and location of metastases (imaging sensitivity 200-500 cells).

Series [9] deals with human colon cancer cells (HT29). Kind of series: Microarray analysis of treated HT29 cells. Format: cell-based. The note with it: 500 nM, 6 h and 18 h. The protocol:
(§4) For the microarray comparison (Affymetrix chip -AU133 plus) human ovarian cancer cells (Ovcar3) and human colon cancer cells (HT29) were treated with 500 nM DMC (48) for 6 h and 18 h or left untreated. A large panel of up and down regulated genes were detected including a broad array of motility, cell shape and chemotaxis genes (FIG. 17).

Series [10] relates to human ovarian cancer cells Ovcar3. Description: Immunofluorescence staining of treated Ovcar3 cells. The note with it: 500 nM. It counts as cell-based. The protocol:
as §4
Ovcar3 cells in exponential growth phase were seeded into 24 well plates at 2×10^4/ml in the presence of 500 nM of DMC (48). […] At the time of staining, cells were pre-blocked at room temperature in PBS with 3% BSA and 0.2% Na-azide. After washing, the cells were then incubated with indicated monoclonal antibody (FIG. 18), diluted 1:200 in 1.5% blocking serum, at 37° C. Cells were washed again and incubated with anti-mouse-Alexa red secondary antibody in the dark at 37° C. Cells were then counter-stained with 4,6-diamidino-2-phenylindole (DAPI) at 0.2 μg/ml PBS.

Where [11] appears, read: 40 mg/kg three times a week for 10 treatments.
The mark [12] stands for this setting: daily injection of 40 mg/kg i.p.

We go through 1 compound from patent US8957056B2, “Migrastatin analogs in the treatment of cancer” (Sloan-Kettering Instiute for Cancer Research, priority 2004, dated 2015).

On to `CO[C@H]1/C=C/CCCCC(=O)OC/C(C)=C\[C@@H](C)[C@@H]1O` [Compound 48, Macrolactone], for which, in series [1], the IC50 amounted to 24 nM. In addition, the “metabolic stability in mouse blood plasma” value in series [2] is listed as “hydrolyzed rapidly”. The “response of MDA MB435 to the compound” value in [3] was “responded only slightly”. Also, the “inhibition of cell migration, wound healing assay, HT 29” value in [4] is listed as “+”. Also, the “inhibition of cell migration, wound healing assay, HCT 116” value in the series on colon cell line HCT 116 is reported as “+”. In series [5], the “inhibition of cell migration, wound healing assay, IGROV” value is reported as “+”. The “inhibition of cell migration, wound healing assay, Ovcar3” value in series [6] is “+”. For the same compound, the “inhibition of cell migration, wound healing assay, MDA MB435” value in series [7] was “+”. In the series with CAG cells, the IC50 stood at 24 nM. In the series with SKOV, the “effect on proliferation, SKOV” value is given as “inhibition of proliferation”. The “effect on proliferation, HT29” value in the series on HT29 is recorded as “inhibition of proliferation”. In the series with IGROV, the “effect on proliferation, IGROV” value is recorded as “inhibition of proliferation”. Further, the “effect on proliferation, HCT116” value in the series with HCT116 is “uninfluenced”. In addition, the “effect on proliferation, Ovcar3” value with Ovcar3 is given as “uninfluenced”. In the series on Ovcar4, the “effect on proliferation, Ovcar4” value is reported as “uninfluenced”. In addition, in [8] (setting [11]), the “reduction of metastasis for liver” value is listed as 80%; the “reduction of metastasis in lung and spleen” value is on record as “highly significant reduction”. For the same compound, the “treated mice that had ascitis” value in series [8] (FIG. 9, 4 out of 4 control mice had ascitis) was 1 out of 4. Further, in series [8] (setting [12]), the “survival” value is on record as “increase of survival” and the “total tumor mass” value was “reduction of the total tumor mass”. Further, the “mice with inhibition of ascitis at the endpoint” value in series [8] (daily injection of 40 mg/kg i.p., all control mice developed ascites) is 3 out of 4. Besides, the “E-cadherin expression, micro array” value in [9] is “upregulation”. Further, the “Integrin α2 and CD44, immunofluorescent microscopy” value in series [10] is “Upregulated”. Moreover, the “β-tubulin, immunofluorescent microscopy” value in series [10] (after 6 h or 24 h) was “did not show any modulations”.
